Source: patent US11890279B2, “Quinolines that modulate SERCA and their use for treating disease” (Neurodon Corporation, priority 2020, dated 2024)

Experiments:
APP-PS1 mice = assay: Aβ deposition, thioflavin S staining; assay type: in vivo, mouse; conditions: 10 mg/kg ip, 4 weeks, vs saline
Description: Mice were transcardially perfused with ice-cold PBS (3 mL) followed by 4% paraformaldehyde (5 mL). Brains were extracted and fixed overnight in 30% sucrose-cryoprotectant solution. Coronal hippocampal sections […] thick were cut on a cryostat and collected in TBS (0.1 M Tris, 0.9% saline, pH 7.4). Thioflavin S Staining: Free-floating hippocampal sections were washed with TBS (4×3 min). The sections were soaked in 0.5% thioflavin S (in 50/50 ethyl alcohol/distilled water, Sigma-Aldrich) for 10 min, followed by 2×3 min washes with 50% ethyl alcohol. Sections were washed again with TBS (2×3 min), mounted with minimal drying, and coverslipped with anti-fade mounting medium PVA-DABCO for microscopy. Confocal images of immunolabeled tissue were obtained using 4× and 10× objective lenses on the Olympus Fluoview confocal microscope. Density of amyloid plaques was quantified by averaging the percent area staining positive (thresholded above background staining, as determined by software parameters and experimenter confirmation) within the hippocampus and cortex from 3-5 sections from each experimental animal using MetaMorph Software (Molecular Devices). There were no significant differences in the intensity of background threshold values across animal strains or treatment conditions (p>0.05). The experimenter was blind to animal strain and treatment condition. […] Mice were ˜6 months of age.

ob/ob mice = assay: Glucose (GTT) and insulin (ITT) tolerance tests in ob/ob mice; assay type: in vivo, mouse; conditions: vs vehicle
Description: For the GTT, D-glucose dissolved in 0.9% NaCl was delivered intraperitoneally at a dose of 1 g/kg. The blood glucose level was measured 0, 15, 30, 60, 90, and 120 min after glucose administration. For the ITT, insulin was administered intraperitoneally at a dose of 1 IU/kg. The blood glucose level was measured 0, 15, 30, 60, 90, and 120 min after insulin administration. Glucose levels were measured in blood samples drawn from the tail vein using OneTouch Ultra 2 Meter (LifeScan, Inc.).

SERCA (SR vesicles) = assay: Activation of SERCA, increase in Vmax; assay type: biochemical
Description: Test compounds were characterized over a range of concentrations using an NADH-linked, enzyme-coupled ATPase assay. Each well contained 2 mg or 7 mg of SR vesicles (optimized for skeletal or cardiac SR, respectively), 50 mM MOPS (pH 7.0), 100 mM KCl, 5 mM MgCl2, 1 mM EGTA, 0.2 mM NADH, 1 mM phosphoenol pyruvate, 5 IU pyruvate kinase, 5 IU lactate dehydrogenase, and 3.5 mg/mL A23187 (a calcium ionophore), and CaCl2 was added to set free [Ca2+] to the specific values. The assay was started upon addition of ATP at a final concentration of 5 mM, and read in a SpectraMax Plus microplate spectrophotometer and the ATPase activities were fitted using the Hill function.

[1] = biological target: human serotonin (5-hydroxytryptamine) 5-HT2B (Homo sapiens (Human), UniProt P41595); assay: Selectivity panel of 164 targets; conditions: 10 μM in duplicate; one of only 4 hits among 164 targets
Description: The methods used here for each target were adapted from the scientific literature to maximize reliability and reproducibility. Reference standards were run as an integral part of each essay to ensure the validity of the results obtained.

[2] = Pharmacokinetics in Sprague Dawley rats; assay type: in vivo, rat; conditions: Sprague Dawley rats
Description: Blood was drawn at 5 min, 15 min, 30 min, 1 hr, 2 hrs, 4 hrs, 6 hrs, and 8 hrs into EDTA containing tubes and plasma was harvested by centrifugation. Plasma (25 μL) was treated with acetonitrile (125 μL) containing an internal standard. The sample was then centrifuged for 5 min at 4,000 rpm in a tabletop centrifuge and the filtrate was collected. The filtrate was injected onto a Thermo Betasil C18 HPLC column 5 (50×2.1 mm). Mobile Phase A was water with 0.1% formic acid. Mobile Phase B was acetonitrile with 0.1% formic acid. […] An API Sciex 4000 equipped with a turbo ion spray source was used for all analytical measurements. A positive ion MRM method was developed. Peak areas of the product ion were measured against the peak areas of the internal standard. Data was fit using WinNonLin (Pharsight Corporation, Mountain View, CA).

liver of ob/ob mice = assay: Liver expression of gluconeogenesis and lipogenesis genes in ob/ob mice; assay type: in vivo, mouse
Description: The expression of key genes involved in gluconeogenesis and lipogenesis was measured. RNA was isolated from liver samples of the ob/ob mice and mRNA expression of the indicated genes was quantified by Real-time PCR using iTaq Fast SYBR Green Supermix with ROX (Bio-Rad) in a 7500 Real-Time PCR systems (Applied Biosystems) using mouse specific primers. Gene expression is normalized to 18s. RNA was isolated using Trizol (Invitrogen). cDNA was generated using High Capacity cDNA Reverse Transcription kit (Applied Biosystems). Real-time PCR was performed with iTaq Fast SYBR Green Supermix with ROX (Bio-Rad) in 7500 Real-Time PCR systems (Applied Biosystems) using mouse specific primers. Gene expression was normalized to 18s. Isolated liver tissue was homogenized in RIPA buffer containing protease inhibitors and phosphatase inhibitors (Roche). Protein samples were matched for their protein concentrations and 30 micrograms of each sample were applied to SDS-PASE and transferred onto nitrocellulose membrane. Membranes were then incubated with the corresponding phosphor or total primary antibodies specific for the desired proteins followed by incubation with appropriate secondary antibodies conjugated to horseradish peroxidase (Pierce) and signal intensities were visualized by Chemiluminescence (Pierce). Films from at least four independent experiments were scanned and densities of the immunoreactive bands were evaluated using NIH Image software. GAPDH (Santa Cruz Biotechnology) was used as a loading control.

human adenosine A2A = human adenosine A2A (Homo sapiens (Human), UniProt P29274); assay: Selectivity panel of 164 targets; conditions: 10 μM in duplicate; one of only 4 hits among 164 targets
Description: (§1) The methods used here for each target were adapted from the scientific literature to maximize reliability and reproducibility.

[3] = biological target: human nerepinephrine (NET) transporter (Homo sapiens (Human), UniProt P23975); assay: Selectivity panel of 164 targets; conditions: 10 μM in duplicate; one of only 4 hits among 164 targets
Description: as §1

[4] = test system: rabbit monoamine transporter; assay: Selectivity panel of 164 targets; conditions: 10 μM in duplicate; one of only 4 hits among 164 targets
Description: as §1

[5] = Brain barrier penetration in mice; assay type: in vivo; conditions: mouse, brain/plasma, 10 mg/kg IP, 1 hr after dosing, read-out: brain/plasma ratio
Description: The brains of the mice were harvested 1 hr after dosing. The brain/plasma ratio was 2.6.

human adenosine A2A, sequence (P29274 whole entry): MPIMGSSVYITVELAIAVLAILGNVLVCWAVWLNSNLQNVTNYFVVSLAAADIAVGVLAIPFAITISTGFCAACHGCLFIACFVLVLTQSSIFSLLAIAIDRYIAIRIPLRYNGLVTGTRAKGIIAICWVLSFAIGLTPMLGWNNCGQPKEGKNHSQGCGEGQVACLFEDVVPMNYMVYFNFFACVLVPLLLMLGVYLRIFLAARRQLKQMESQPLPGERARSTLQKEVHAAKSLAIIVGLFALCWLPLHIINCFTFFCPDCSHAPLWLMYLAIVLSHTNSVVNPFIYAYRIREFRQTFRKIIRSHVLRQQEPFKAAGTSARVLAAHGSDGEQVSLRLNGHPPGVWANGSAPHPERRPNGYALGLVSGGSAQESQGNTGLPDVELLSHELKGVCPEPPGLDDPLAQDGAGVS
human serotonin (5-hydroxytryptamine) 5-HT2B, sequence (P41595 whole entry): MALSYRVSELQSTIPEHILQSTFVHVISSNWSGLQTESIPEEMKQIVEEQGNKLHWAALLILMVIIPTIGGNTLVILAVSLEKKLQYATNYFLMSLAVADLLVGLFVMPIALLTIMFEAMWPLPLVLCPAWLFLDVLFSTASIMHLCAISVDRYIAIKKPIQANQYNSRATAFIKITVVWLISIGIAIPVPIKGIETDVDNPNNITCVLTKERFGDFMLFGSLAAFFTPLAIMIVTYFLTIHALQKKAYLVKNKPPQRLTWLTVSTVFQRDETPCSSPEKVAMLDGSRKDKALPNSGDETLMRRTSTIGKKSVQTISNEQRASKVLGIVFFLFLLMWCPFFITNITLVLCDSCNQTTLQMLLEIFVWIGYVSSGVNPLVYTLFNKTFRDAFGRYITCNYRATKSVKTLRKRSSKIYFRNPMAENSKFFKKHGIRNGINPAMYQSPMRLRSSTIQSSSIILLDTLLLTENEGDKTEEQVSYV

Cc1ccc2cccc(NC(=O)c3ccc(OC(C)C)cc3)c2n1 [Compound A12, 4-Isopropoxy-N-(2-methylquinolin-8-yl)benzamide]
amyloid plaques stained with Thioflavin S (APP-PS1 mice): reduced
hyperglycemic response to i.p. glucose challenge (GTT) (ob/ob mice; day 7 post-injection): significantly reduced
insulin-stimulated glucose deposal (ITT) (ob/ob mice; day 10 post-injection): strongly enhanced
Increase in Vmax at 10 μM (SERCA (SR vesicles)): A′ (A′ represents an increase greater than 50%)
response against human 5-HT2B [1]: significant responses
CLobs ([2]; listed under oral pharmacokinetic properties): 15.1 L/h/kg
Cmax ([2]; rat, plasma, oral, 2 mg/kg P.O.): 0.26 µM
AUC(0-t) ([2]; rat, plasma, oral, 2 mg/kg P.O., read-out: AUClast): 410 nM·h
expression of PPARα and PGC1α (liver of ob/ob mice): increased
mRNA expression of G6PAse and PEPCK (liver of ob/ob mice): significantly reduced
mRNA expression of lipogenic genes (SCD1, DGAT2, FASn, SREBP1c) (liver of ob/ob mice): significantly reduced
response against human adenosine A2A (human adenosine A2A): significant responses
response against human NET transporter [3]: significant responses
response against rabbit monoamine transporter [4]: significant responses
Kp at 1 h [5]: 2.6
